According to patent US20240391931A1 (Bristol-Myers Squibb Company, priority 2021, published 2024):

Legend:
HER2YVMA = HER2YVMA (Homo sapiens, UniProt P04626, INS775YVMA); test: Enzymatic assay HER2YVMA (method b); format: biochemical; parameters: purchased Viva biotech, Shanghai, China custom purification; settings: [HER2YVMA]=5 nM, [ATP]=25 μM, [Peptide 22]=1 μM
In short: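 Microfluidic mobility-shift kinase assay with Peptide 22 (1 μM) in HEPES pH 7.5, MnCl2, MgCl2, Tween 20, TCEP. HER2 WT 12.5 nM and HER2 YVMA 5 nM each used 25 μM ATP; EGFR WT 2 nM used 1 mM ATP. IC50 came from initial-velocity (0–3600 s) percent inhibition, fitted to a variable-slope model.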

EGFR = EGFR (Homo sapiens, UniProt P00533); test: EGFR signaling (pEGFR Tyr1068/total EGFR MSD) in A431 cells; format: cell-based; parameters: endogenous in cells; host or cells: A431, N87; settings: for EC50: A431 cells, read-out: A431 pEGFR EC50; for Selectivity A431 EC50/BT474 EC50: ratio A431 pEGFR EC50 to BT474 pHER2 EC50; for Selectivity A431 EC50/HEKYVMA EC50: ratio A431 pEGFR EC50 to HEK YVMA pHER2 EC50
In short: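 Serum-starved A431 cells were pretreated 1.5 h in 1% FBS with compound (0.005–10 μM, 0.1% DMSO), then stimulated with 100 ng/mL human EGF for 10 min. Lysate pEGFR Tyr1068 was measured by MSD and normalized to total EGFR as % DMSO control; EC50 from variable-slope sigmoidal fit.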

Chain of HER2YVMA (P04626 with tags, fused parts or gaps INS775YVMA): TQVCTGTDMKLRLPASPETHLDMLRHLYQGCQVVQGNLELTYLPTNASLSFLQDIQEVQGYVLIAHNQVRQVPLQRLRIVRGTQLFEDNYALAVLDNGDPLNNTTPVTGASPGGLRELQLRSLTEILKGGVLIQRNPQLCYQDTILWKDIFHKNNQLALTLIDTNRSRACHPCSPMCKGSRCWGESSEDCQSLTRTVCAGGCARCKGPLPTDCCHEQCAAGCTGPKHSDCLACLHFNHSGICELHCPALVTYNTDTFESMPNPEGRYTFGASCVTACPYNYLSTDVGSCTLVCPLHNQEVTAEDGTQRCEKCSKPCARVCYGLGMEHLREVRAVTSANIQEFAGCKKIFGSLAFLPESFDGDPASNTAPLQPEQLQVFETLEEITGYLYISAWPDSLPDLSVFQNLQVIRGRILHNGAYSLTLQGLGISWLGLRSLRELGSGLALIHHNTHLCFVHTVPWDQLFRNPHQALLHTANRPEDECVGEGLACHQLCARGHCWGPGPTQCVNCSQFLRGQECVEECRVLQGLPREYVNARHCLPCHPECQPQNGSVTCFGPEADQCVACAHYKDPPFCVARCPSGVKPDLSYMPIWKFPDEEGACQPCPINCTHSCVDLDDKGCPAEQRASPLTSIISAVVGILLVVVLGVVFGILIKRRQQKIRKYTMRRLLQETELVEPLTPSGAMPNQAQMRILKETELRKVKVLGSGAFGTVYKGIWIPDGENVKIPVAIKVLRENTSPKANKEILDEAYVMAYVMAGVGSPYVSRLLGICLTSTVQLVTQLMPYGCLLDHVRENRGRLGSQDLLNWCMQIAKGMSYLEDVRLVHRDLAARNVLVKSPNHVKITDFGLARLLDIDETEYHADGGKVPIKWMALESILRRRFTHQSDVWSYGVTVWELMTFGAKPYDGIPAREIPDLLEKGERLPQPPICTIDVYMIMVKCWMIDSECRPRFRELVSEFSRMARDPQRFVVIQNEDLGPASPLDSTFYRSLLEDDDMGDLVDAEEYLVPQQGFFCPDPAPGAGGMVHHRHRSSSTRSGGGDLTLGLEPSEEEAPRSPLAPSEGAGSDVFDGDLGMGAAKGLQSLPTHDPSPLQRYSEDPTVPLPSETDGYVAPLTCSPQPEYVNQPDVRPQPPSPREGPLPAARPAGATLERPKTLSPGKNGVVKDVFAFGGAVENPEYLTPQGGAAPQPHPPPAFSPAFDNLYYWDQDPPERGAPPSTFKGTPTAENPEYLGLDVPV
Chain of EGFR (P00533 25-1210): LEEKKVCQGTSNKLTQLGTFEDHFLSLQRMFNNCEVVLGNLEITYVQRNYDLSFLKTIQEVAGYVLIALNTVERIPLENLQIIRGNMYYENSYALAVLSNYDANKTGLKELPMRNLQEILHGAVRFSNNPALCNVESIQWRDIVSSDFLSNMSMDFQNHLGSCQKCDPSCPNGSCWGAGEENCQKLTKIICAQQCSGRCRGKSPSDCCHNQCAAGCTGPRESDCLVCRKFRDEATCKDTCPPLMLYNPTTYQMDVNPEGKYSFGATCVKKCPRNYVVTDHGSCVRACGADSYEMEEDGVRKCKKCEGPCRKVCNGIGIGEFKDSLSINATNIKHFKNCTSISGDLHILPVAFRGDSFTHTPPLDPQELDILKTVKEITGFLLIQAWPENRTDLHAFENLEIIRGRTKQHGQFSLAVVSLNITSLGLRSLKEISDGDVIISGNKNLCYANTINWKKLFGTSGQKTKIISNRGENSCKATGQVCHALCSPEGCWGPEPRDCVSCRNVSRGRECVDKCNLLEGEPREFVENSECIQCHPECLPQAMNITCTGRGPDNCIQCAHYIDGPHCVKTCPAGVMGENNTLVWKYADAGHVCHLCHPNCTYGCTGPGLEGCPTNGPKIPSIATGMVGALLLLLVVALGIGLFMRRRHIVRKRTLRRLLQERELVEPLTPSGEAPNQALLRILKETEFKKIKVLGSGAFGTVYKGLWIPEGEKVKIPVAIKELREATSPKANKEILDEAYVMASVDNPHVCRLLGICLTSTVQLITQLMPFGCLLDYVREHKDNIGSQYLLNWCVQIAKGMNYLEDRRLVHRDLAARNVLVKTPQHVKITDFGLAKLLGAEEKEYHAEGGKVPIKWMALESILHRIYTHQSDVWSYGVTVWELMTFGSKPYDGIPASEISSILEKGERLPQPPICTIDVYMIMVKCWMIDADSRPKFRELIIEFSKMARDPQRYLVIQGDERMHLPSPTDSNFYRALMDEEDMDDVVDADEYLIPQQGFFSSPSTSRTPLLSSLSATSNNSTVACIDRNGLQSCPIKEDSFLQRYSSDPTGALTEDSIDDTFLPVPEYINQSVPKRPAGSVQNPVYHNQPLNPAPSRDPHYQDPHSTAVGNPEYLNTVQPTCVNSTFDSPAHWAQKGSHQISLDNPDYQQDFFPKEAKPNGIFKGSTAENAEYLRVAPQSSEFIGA

Row | SMILES | IC50 (HER2YVMA) [nM] | EC50 (EGFR) [nM] | Selectivity A431 EC50/BT474 EC50 (EGFR) | Selectivity A431 EC50/HEKYVMA EC50 (EGFR)
1 | COc1ccc(Oc2ccc(Nc3ncnc4sc5c(c34)CCN(C(=O)/C=C/CN3CC[C@H](CO)C3)C5)cc2C)cn1 [Compound 140] | < 100 | 100 to 1000 | B (B: ≥ 20 and < 100) | C (C: ≥ 10 and < 20)
2 | Cc1ccc(Oc2ccc(Nc3ncnc4sc5c(c34)CCN(C(=O)/C=C/CN3CCC(CO)(CO)CC3)C5)cc2C)cn1 [Compound 135] | < 100 | 1000 to 10000 | B (B: ≥ 20 and < 100) | D (D: ≥ 5 and < 10)
3 | Cc1ccc(Oc2ccc(Nc3ncnc4sc5c(c34)CCN(C(=O)/C=C/CN3CC[C@H](F)C3)C5)cc2C)cn1 [Compound 124] | < 100 | < 100 | B (B: ≥ 20 and < 100) | C (C: ≥ 10 and < 20)
4 | Cc1ccc(Oc2ccc(Nc3ncnc4sc5c(c34)CCN(C(=O)/C=C/CN3CC4CCC(C3)O4)C5)cc2C)cn1 [Compound 13] | 100 to 1000 | 100 to 1000 | C (C: ≥ 10 and < 20) | C (C: ≥ 10 and < 20)
5 | Cc1cc(Nc2ncnc3sc4c(c23)CCN(C(=O)/C=C/CN2CCOCC2)C4)ccc1Oc1ccc2ncnn2c1 [Compound 12] | 100 to 1000 | 1000 to 10000 | A (A: ≥100) | B (B: ≥ 20 and < 100)
6 | Cc1ccc(Oc2ccc(Nc3ncnc4sc5c(c34)C[C@@H](C)N(C(=O)/C=C/CN(C)C)[C@H]5C)cc2C)cn1 (racemic) [Compound 149, (E)-1-(6,8-cis-dimethyl-4-((3-methyl-4-((6-methylpyridin-3-yl)oxy)phenyl)amino)-5,8-dihydropyrido[4′,3′:4,5]thieno[2,3-d]pyrimidin-7(6H)-yl)-4-(dimethylamino)but-2-en-1-one] | < 100 | 100 to 1000 | B (B: ≥ 20 and < 100) | D (D: ≥ 5 and < 10)
7 | COc1ccc(Oc2ccc(Nc3ncnc4sc5c(c34)CN(C(=O)/C=C/CN(C)C)C5)cc2C)cn1 [Compound 128, (E)-4-(dimethylamino)-1-(4-((4-((6-methoxypyridin-3-yl)oxy)-3-methylphenyl)amino)-5,7-dihydro-6H-pyrrolo[3′,4′:4,5]thieno[2,3-d]pyrimidin-6-yl)but-2-en-1-one] | < 100 | 1000 to 10000 | B (B: ≥ 20 and < 100) | B (B: ≥ 20 and < 100)
8 | Cc1ccc(Oc2ccc(Nc3ncnc4sc5c(c34)CN(C(=O)C=CCN(C)C)C5C)cc2C)cn1 (single isomer, unassigned) [Compound 170] | 1000 to 10000 | < 100 | B (B: ≥ 20 and < 100) | B (B: ≥ 20 and < 100)
9 | Cc1cc(Nc2ncnc3sc4c(c23)CCN(C(=O)/C=C/CN(C)C)CC4)ccc1Oc1ccn2ncnc2c1 [Compound 168] | 100 to 1000 | 1000 to 10000 | A (A: ≥100) | B (B: ≥ 20 and < 100)
10 | Cc1ccc(Oc2ccc(Nc3ncnc4sc5c(c34)CCN(C(=O)/C=C/CN3CC(CO)(CO)C3)C5)cc2C)cn1 [Compound 134] | < 100 | 1000 to 10000 | B (B: ≥ 20 and < 100) | B (B: ≥ 20 and < 100)
11 | Cc1ccc(Oc2ccc(Nc3ncnc4sc5c(c34)CC(C)N(C(=O)C=CCN(C)C)C5C)cc2C)cn1 (single isomer, unassigned) [Compound 162] | 1000 to 10000 | > 10000 | B (B: ≥ 20 and < 100) | B (B: ≥ 20 and < 100)
12 | Cc1cn2ccc(Oc3ccc(Nc4ncnc5sc6c(c45)CCN(C(=O)/C=C/CN(C)C)C6)cc3C)cc2n1 [Compound 110, (E)-4-(dimethylamino)-1-(4-((3-methyl-4-((2-methylimidazo[1,2-a]pyridin-7-yl)oxy)phenyl)amino)-5,8-dihydropyrido[4′,3′:4,5]thieno[2,3-d]pyrimidin-7(6H)-yl)but-2-en-1-one] | < 100 | 1000 to 10000 | B (B: ≥ 20 and < 100) | C (C: ≥ 10 and < 20)
13 | Cc1ccc(Oc2ccc(Nc3ncnc4sc5c(c34)C(C)CN(C(=O)C=CCN(C)C(C)(C)C)C5)cc2C)cn1 (single isomer, unassigned) [Compound 178] | 100 to 1000 | 100 to 1000 | D (D: ≥ 5 and < 10) | E (E: >1 and < 5)
14 | Cc1ccc(Oc2ccc(Nc3ncnc4sc5c(c34)C(C)CN(C(=O)/C=C/CN(C)C)C5)cc2Cl)cn1 (stereo not shown) [Compound 171, (E)-1-(4-((3-Chloro-4-((6-methylpyridin-3-yl)oxy)phenyl)amino)-5-methyl-5,6-dihydropyrido[4′,3′:4,5]thieno[2,3-d]pyrimidin-7(8H)-yl)-4-(dimethylamino)but-2-en-1-one] | < 100 | < 100 | A (A: ≥100) | E (E: >1 and < 5)
15 | Cc1cc(Nc2ncnc3sc4c(c23)CCN(C(=O)/C=C/CN(C)C)C4)ccc1Oc1ccn2ccnc2c1 [Compound 126, (E)-4-(dimethylamino)-1-(4-((4-(imidazo[1,2-a]pyridin-7-yloxy)-3-methylphenyl)amino)-5,8-dihydropyrido[4′,3′:4,5]thieno[2,3-d]pyrimidin-7(6H)-yl)but-2-en-1-one] | < 100 | 100 to 1000 | B (B: ≥ 20 and < 100) | B (B: ≥ 20 and < 100)
16 | Cc1ccc(Oc2ccc(Nc3ncnc4sc5c(c34)CCN(C(=O)/C=C/CN(C)C)C5)cc2C)cn1 [Compound 8, (E)-4-(Dimethylamino)-1-(4-((3-methyl-4-((6-methylpyridin-3-yl)oxy)phenyl)amino)-5,6-dihydropyrido[4′,3′:4,5]thieno[2,3-d]pyrimidin-7(8H)-yl)but-2-en-1-one] | < 100 | < 100 | C (C: ≥ 10 and < 20) | C (C: ≥ 10 and < 20)
17 | Cc1ccc(Oc2ccc(Nc3ncnc4sc5c(c34)CCN(C(=O)/C=C/CN3CCCC(c4nccs4)C3)C5)cc2C)cn1 (stereo not shown) [Compound 113] | < 100 | 100 to 1000 | B (B: ≥ 20 and < 100) | C (C: ≥ 10 and < 20)

Other lines, results leading:

Row | IC50 (HER2YVMA) [nM] | EC50 (EGFR) [nM] | Selectivity A431 EC50/BT474 EC50 (EGFR) | Selectivity A431 EC50/HEKYVMA EC50 (EGFR) | SMILES
18 | < 100 | 100 to 1000 | B (B: ≥ 20 and < 100) | C (C: ≥ 10 and < 20) | Cc1ccc(Oc2ccc(Nc3ncnc4sc5c(c34)CCN(C(=O)/C=C/CN3CC[C@@H](CO)C3)C5)cc2C)cn1 [Compound 132]
19 | < 100 | < 100 | D (D: ≥ 5 and < 10) | E (E: >1 and < 5) | Cc1ccc(Oc2ccc(Nc3ncnc4sc5c(c34)CC(C)N(C(=O)C=CCN(C)C)C5C)cc2C)cn1 (single isomer, unassigned) [Compound 161]
20 | < 100 | < 100 | E (E: >1 and < 5) | E (E: >1 and < 5) | C=CC(=O)N1CCc2c(sc3ncnc(Nc4ccc(Oc5cccnc5)c(Cl)c4)c23)C1 [Compound 6, 1-(4-((3-chloro-4-(pyridin-3-yloxy)phenyl)amino)-5,8-dihydropyrido[4′,3′:4,5]thieno[2,3-d]pyrimidin-7(6H)-yl)prop-2-en-1-one]
21 | < 100 | < 100 | C (C: ≥ 10 and < 20) | C (C: ≥ 10 and < 20) | Cc1ccc(Oc2ccc(Nc3ncnc4sc5c(c34)CN(C(=O)/C=C/CN(C)C)CC5)cc2C)cn1 [Compound 108, (E)-4-(Dimethylamino)-1-(4-((3-methyl-4-((6-methylpyridin-3-yl)oxy)phenyl)amino)-7,8-dihydropyrido[3′,4′:4,5]thieno[2,3-d]pyrimidin-6(5H)-yl)but-2-en-1-one]
22 | 100 to 1000 | 1000 to 10000 | B (B: ≥ 20 and < 100) | C (C: ≥ 10 and < 20) | Cc1ccc(Oc2ccc(Nc3ncnc4sc5c(c34)CCN(C(=O)/C=C/CN3CC(C)(C)OC(C)(C)C3)C5)cc2C)cn1 [Compound 121]
23 | < 100 | 100 to 1000 | B (B: ≥ 20 and < 100) | B (B: ≥ 20 and < 100) | Cc1ccc(Oc2ccc(Nc3ncnc4sc5c(c34)CCN(C(=O)/C=C/CN3CCCCC3(C)CO)C5)cc2C)cn1 (stereo not shown) [Compound 119]
24 | < 100 | 1000 to 10000 | A (A: ≥100) | B (B: ≥ 20 and < 100) | Cc1cc(Nc2ncnc3sc4c(c23)CN(C(=O)/C=C/CN(C)C)C4)ccc1Oc1ccc2ncnn2c1 [Compound 111, (E)-1-(4-((4-([1,2,4]Triazolo[1,5-a]pyridin-6-yloxy)-3-methylphenyl)amino)-5H-pyrrolo[3′,4′:4,5]thieno[2,3-d]pyrimidin-6(7H)-yl)-4-(dimethylamino)but-2-en-1-one]
25 | 100 to 1000 | 100 to 1000 | C (C: ≥ 10 and < 20) | D (D: ≥ 5 and < 10) | COc1ccc(Oc2ccc(Nc3ncnc4sc5c(c34)CCN(C(=O)/C=C/CN3CCOCC3)C5)cc2C)cn1 [Compound 164]
